Experimental data reported in patent publication US8080582B2, “Derivatives of 8-epiblechnic acid and their effects on down-regulation of endothelin (ETA) receptor mRNA” (ScinoPharm Taiwan Ltd., priority 2008, dated 2011).

How the values were obtained:
Format in all cases: cell-based
[1] = test system: nasopharyngeal cancer cells (Hone-1); assay: MTT cell viability, nasopharyngeal cancer cells; details: Hone-1 cells, summary statement
Method: (§1) The cells (1×10^5 cells/well in 24-well plates) were cultured for 24 hrs. Different concentrations of Sal-B and its analogs (0, 50, 100, 150, 200, 250 μg/ml) were added to treat the cells. After treating for 48 hrs, 100 μl MTT solution was added to each well, and the plate was placed in an incubator for 1-4 hrs. After adding 400 μl DMSO to treat the cells for 30 min., 200 μl samples were collected and placed in a 96-well plate to conduct the absorption measurement at 550 nm.
(§2) Cancer cells were treated with Sal-B and EBA at concentrations of 0, 0.1, 0.2, 0.3, 0.4, 0.5 mM. After treating for 48 hrs, MTT was added, and then allowed to react for 3 hrs at 37° C. After that, DMSO was added and allowed to react for 30 min., the OD570 absorption values were measured. Cell viability was above 80% when nasopharyngeal cancer cells (Hone-1) were treated with […] Sal-B and EBA. […] But the cell viability remained above 70% for treating with 0.1 mM and 0.2 mM EBA. Similar results were obtained when prostate cancer cells (PC-3) were treated with the drugs: Cell viability was above 80% for treating PC-3 cells with 0.2 mM Sal-B or EBA.

[2] = MTT cell viability, nasopharyngeal cancer cells; details: human, Hone-1 nasopharyngeal cancer cells, 48 hrs, MTT
Method: as §1, §2

[3] = test system: breast cancer cells (MCF-7); assay: MTT cell viability, breast cancer cells; details: MCF-7, different concentrations (0-0.5 mM), 48 hrs
Method: as §1, §2

[4] = MTT cell viability / observation of normal vascular smooth muscle cells (A10); details: rat, A10 cells, drug concentration 0.2 mM, MTT
Method: as §1
(§3) Cell viability testing (MTT testing) was employed to determine the cytotoxicity of Sal-B and EBA to vascular smooth muscle cells. Vascular smooth muscle cells (cell line A10) were treated with Sal-B and EBA at concentrations of 0, 0.1, 0.2, 0.3, 0.4, and 0.5 mM. After treating for 48 hrs, MTT was added and allowed to react for 3 hrs at 37° C. Then, DMSO was added and allowed to react for 30 min., after that, the OD570 absorption values were measured. Cell viability was still 90% when the drug concentration reached 0.2 mM.
(§4) Sal-B's analogs, compounds A to F, were dissolved in DMSO, and then added to A10 cells to observe the results.

[5] = MTT cell viability, prostate cancer cells; details: human, PC-3 prostate cancer cells; PC-3, 0.2 mM, 48 hrs, MTT
Method: as §1, §2
MTT testing was employed to observe the viability of cancer cells after treating with Sal-B and the six synthetic analogs.

[6] = test system: Vascular smooth muscle cells (cell line A10); assay: MTT cell viability / observation of normal vascular smooth muscle cells (A10); details: A10 cells, drug concentration 0.2 mM, 48 hrs, MTT
Method: as §1, §3, §4

Compound | Inhibition of growth of Hone-1 cells [1] | viability at 48 h, 0.05 mM ([2]; Hone-1, 0.05 mM) [%] | viability at 48 h ([2]; Hone-1, 0.1 mM and 0.2 mM) [%] | Effect on cancer cell viability [3] | viability at 48 h, 0.2 mM [4] [%] | viability at 48 h, 0.2 mM [5] [%] | Cell viability [6] [%]
O=C(/C=C/c1ccc(O)c2c1[C@H](C(=O)O[C@H](Cc1ccc(O)c(O)c1)C(=O)[O-])[C@@H](c1ccc(O)c(O)c1)O2)O[C@H](Cc1ccc(O)c(O)c1)C(=O)[O-].[Mg+2] [Sal-B, magnesium lithospermate B] | significantly inhibit the growth | > 80 | ~60 | no significant effect on cancer cell viability | 90 | > 80 | 
epiblechnic acid [EBA] |  |  |  | no significant effect on cancer cell viability |  |  | 90
